{"source": "patent US8257755B2", "about": "“Metabolic syndrome-improving agent and medicine, supplement, functional food and food additive containing the same” (ARKRAY, Inc., priority 2005, dated 2012)", "key": {"[1]": {"system": "HepG2 cells (human hepatic cells)", "assay": "VLDL secretion inhibition experiment in HepG2 cells (apoB100 ELISA)", "assay_type": "cell-based", "details": "30 hours, measurement group/control group, DMSO control = 100, average ± standard error", "method": "A sandwich ELISA that recognized human apoB100 in the VLDL as an antigen was used. First, 100 μL of Moab×LDL Apolipoprotein B (ApoB) (manufactured under MONOSAN®) was dispensed in each well of ELISA PLATE, and the plate was sealed with a sterile seal and then allowed to stand still at 4° C. overnight. In the following, all the dispensing mentioned is for a single well. On the next day, 200 μL of Zepto Block (trade name, manufactured by ZeptoMetrix Corporation) was dispensed, and then the above-noted plate was sealed and allowed to stand still for 2 hours at room temperature for blocking. Subsequently, 100 μL of the medium and the VLDL standard solution were dispensed, and then the plate was sealed and allowed to stand still for 1 hour at room temperature. Washing with 200 μL of PBST and absorption using an aspirator were carried out five times in total. Then, 100 μL of Affinity Purified Anti-Apolipoprotein B (manufactured by Rockland Immunochemicals, Inc.) that had been diluted with PBS by 1000 times was dispensed and allowed to stand still for 1 hour at room temperature. After washing similarly to the above, 100 μL of Donkey Anti-goat IgG HRP (manufactured by Promega Corporation) that had been diluted with PBS by 5000 times was dispensed and allowed to stand still for 1 hour at room temperature. […] 100 μL of 1M phosphoric acid solution was added to the above-noted mixture solution, and the absorbance at 450 nm was measured using wallac ARVOsx (trade name, PerkinElmer Life Sciences, PerkinElmer, Inc.). […]\nHepG2 was cultured to 80% to 90% confluence in a 100 mm/Collagen-Coated Dish (trade name, manufactured by Iwaki Glass Works, Co.). […] Using this collected medium, the number of living cells were counted, and the Western blotting and the ELISA measurement were carried out similarly to the above. From the result of the ELISA, the ratio of the VLDL secretion amount between the measurement group and the non-treated control group (measurement group/control group) was calculated for each sample."}, "[2]": {"system": "3T3-L1 cells", "assay": "Adiponectin secretion amount in 3T3-L1 medium supernatant by ELISA", "assay_type": "cell-based, mouse", "details": "medium 7 days after differentiation induction, non-treatment control 4.27 ± 0.32, average ± standard error", "method": "Next, culture preadipocytes 3T3-L1 were thawed, inoculated in a 100 mm dish and cultured until 3T3-L1 cells reached about 80% confluence. A single dish of 3T3-L1 that had reached about 80% confluence was subcultured to a single 6-well plate and further cultured until the 3T3-L1 cells reached confluence in the 6-well plate, and then the medium was replaced with the differentiation induction medium, followed by differentiation induction. 48 hours later, the medium was replaced with the differentiation promotion medium, and thereafter, the medium was replaced with the differentiation promotion medium every two days. 7 days after the initiation of the differentiation induction, mRNA was extracted using Sepasol-RNA I Super (trade name; manufactured by Nacalai Tesque, Inc.), and the mRNA expression amounts of 36B4, aP2 and adiponectin, which were indicators of an early period of adipocyte differentiation, were measured using Light Cycler (TM). Also, the medium 7 days after the differentiation induction was taken in an amount of 1 mL from each well, and the amount of adiponectin in the medium supernatant was measured using a mouse/rat adiponectin ELISA kit (manufactured by Otsuka Pharmaceutical Co., Ltd.). […]\nOnly the strips of the antibody plates necessary for the analysis were taken out. […] Incidentally, the standard solutions always were measured for each measurement and each plate. […]"}}, "data": [{"smiles": "CC(C)=CCC/C(C)=C/COc1c2ccoc2cc2oc(=O)ccc12", "note": "[Bergamottin, bergamottin]", "values": [{"measurement": "VLDL secretion ratio (%)", "setting": "[1]; 10 μM", "result": "63.4 ± 10.94", "unit": "%"}, {"measurement": "VLDL secretion ratio (%)", "setting": "[1]; 20 μM", "result": "65.5 ± 13.21", "unit": "%"}, {"measurement": "VLDL secretion ratio (%)", "setting": "[1]; 50 μM", "result": "45.9 ± 6.29", "unit": "%"}, {"measurement": "Adiponectin secretion amount", "setting": "[2]; 1 μM", "result": "4.37 ± 0.12"}, {"measurement": "Adiponectin secretion amount", "setting": "[2]; 5 μM", "result": "8.14 ± 0.36"}]}]}
